Source: publication PMC7044277 (Nature Communications, 2020)
“And” between values parts separate entries of the source, which are not always exact repeats. Equal entries are not always repeated.

How the values were obtained:
[1] = target: DRD2 (D2 long receptor) wild-type (Homo sapiens, UniProt P14416); test: Radioligand competition binding, [3H]-N-methylspiperone, HEK293T membranes; details: DRD2; [3H]-methylspiperone (0.8-1.0 nM); read-out: Ki
DRD3 wild-type = DRD3 wild-type (Homo sapiens, UniProt P35462); test: Radioligand competition binding, [3H]-N-methylspiperone; details: DRD3; [3H]-methylspiperone (0.8-1.0 nM); read-out: Ki
[2] = target: T1, DRD4 (D4.4 variant) wild-type (Homo sapiens, UniProt P21917); test: as above; details: DRD4; [3H]-methylspiperone (0.8-1.0 nM); read-out: Ki
T1 sequence (P21917 1-419): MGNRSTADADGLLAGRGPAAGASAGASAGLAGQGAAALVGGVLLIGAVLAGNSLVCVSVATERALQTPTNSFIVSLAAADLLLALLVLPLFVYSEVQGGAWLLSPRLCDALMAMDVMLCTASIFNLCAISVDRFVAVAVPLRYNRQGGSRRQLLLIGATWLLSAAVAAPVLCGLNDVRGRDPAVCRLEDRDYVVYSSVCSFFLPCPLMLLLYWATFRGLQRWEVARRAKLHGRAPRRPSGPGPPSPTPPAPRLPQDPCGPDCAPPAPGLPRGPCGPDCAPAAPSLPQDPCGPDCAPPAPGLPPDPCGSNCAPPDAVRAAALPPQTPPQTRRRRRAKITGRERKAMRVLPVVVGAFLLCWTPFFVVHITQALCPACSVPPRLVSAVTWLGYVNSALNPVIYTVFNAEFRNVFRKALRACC

DRD3 F1063.28A [3] = target: T2, DRD3 F1063.28A (Homo sapiens, UniProt P35462, F106A); test: biochemical; format: binding
DRD2 (D2 long receptor) [4] = target: T3, DRD2 (D2 long receptor) (Homo sapiens, UniProt P14416); test: Gαi/o-mediated cAMP inhibition (GloSensor split-luciferase cAMP reporter), HEK293T; format: cell-based; details: for response, Fig_S11d dose-response source data: replicate values;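 as to all read-outs here: compounds applied 15 min at room temperature, then luciferin plus 400 nM isoproterenol to raise cAMP through endogenous β2-adrenergic receptors, luminescence read 15 min later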
DRD4 (D4.4 variant) [5] = target: T4, DRD4 (D4.4 variant) (Homo sapiens, UniProt P21917); test: Gαi/o-mediated cAMP inhibition (GloSensor); format: cell-based; details: DRD4; agonist, cAMP inhibition; read-out: EC50 ± SEM
T4 sequence (P21917 1-419): T1 sequence (P21917 1-419)

DRD2 F1103.28L [6] = target: T5, DRD2 F1103.28L (Homo sapiens, UniProt P14416, F110L); test: Gαi/o-mediated cAMP inhibition (GloSensor), mutant; format: cell-based
T5 construct: expressed in transfected cells; host or cells: HEK293T (ATCC CRL-11268)

DRD2 (D2 long receptor) [7] = target: T3, DRD2 (D2 long receptor); test: β-arrestin2 recruitment (Tango), HTLA cells; format: cell-based; details: for response, Fig_S11e dose-response source data: replicate values
DRD3 = DRD3 (Homo sapiens, UniProt P35462); test: β-arrestin2 recruitment (Tango); format: cell-based; details: DRD3, Tango
DRD4 (D4.4 variant) [8] = target: T4, DRD4 (D4.4 variant); test: β-arrestin2 recruitment (Tango); format: cell-based; details: DRD4; Tango; read-out: EC50 ± SEM
DRD2 F1103.28L [9] = target: T5, DRD2 F1103.28L; test: β-arrestin2 recruitment (Tango), mutant; format: cell-based
DRD3 F1063.28A [10] = target: T2, DRD3 F1063.28A; test: cell-based; format: cell-based
DRD2 F1103.28A [11] = target: T6, DRD2 F1103.28A (Homo sapiens, UniProt P14416, F110A); format: binding; set-up: expressed in transfected cells; host or cells: HEK293T (ATCC CRL-11268)
DRD2 F1103.28A [12] = target: T6, DRD2 F1103.28A; test: Gαi/o-mediated cAMP inhibition (GloSensor), mutant; format: cell-based; set-up: expressed in transfected cells; host or cells: HEK293T (ATCC CRL-11268)
DRD2 F1103.28A [13] = target: T6, DRD2 F1103.28A; test: β-arrestin2 recruitment (Tango), mutant; format: cell-based; set-up: expressed in transfected cells; host or cells: HEK293T (ATCC CRL-11268)
[14] = read-out: Emax relative to quinpirole response

T6 sequence (P14416 whole entry F110A): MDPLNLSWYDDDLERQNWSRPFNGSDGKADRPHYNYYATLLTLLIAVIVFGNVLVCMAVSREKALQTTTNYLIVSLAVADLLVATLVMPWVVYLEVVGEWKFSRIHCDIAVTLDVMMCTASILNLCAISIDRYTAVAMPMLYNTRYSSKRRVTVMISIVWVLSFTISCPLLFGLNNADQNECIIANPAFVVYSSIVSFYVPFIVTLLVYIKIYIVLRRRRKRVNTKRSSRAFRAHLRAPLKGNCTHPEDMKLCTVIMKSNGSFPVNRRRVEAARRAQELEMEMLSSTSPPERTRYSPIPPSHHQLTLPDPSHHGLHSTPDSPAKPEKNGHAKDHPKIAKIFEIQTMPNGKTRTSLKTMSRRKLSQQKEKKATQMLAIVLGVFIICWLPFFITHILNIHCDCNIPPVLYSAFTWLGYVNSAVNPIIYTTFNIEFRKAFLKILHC
T2 sequence (P35462 whole entry F106A): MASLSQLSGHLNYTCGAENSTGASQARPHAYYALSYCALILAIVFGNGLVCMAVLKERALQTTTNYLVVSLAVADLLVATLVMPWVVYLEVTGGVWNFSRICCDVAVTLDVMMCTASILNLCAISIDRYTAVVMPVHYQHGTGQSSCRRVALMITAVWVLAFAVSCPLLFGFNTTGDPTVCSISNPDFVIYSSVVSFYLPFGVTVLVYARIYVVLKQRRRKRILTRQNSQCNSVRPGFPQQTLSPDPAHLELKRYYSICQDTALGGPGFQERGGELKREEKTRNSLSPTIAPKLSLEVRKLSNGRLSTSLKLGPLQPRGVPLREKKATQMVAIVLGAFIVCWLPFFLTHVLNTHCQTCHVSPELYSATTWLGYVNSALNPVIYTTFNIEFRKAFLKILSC
T5 sequence (P14416 whole entry F110L): as the sequence (P14416 whole entry F110A) above, with A110L counted along it
T3 sequence (P14416 whole entry): as the sequence (P14416 whole entry F110A) above, with A110F counted along it
Chain of DRD3 (P35462 whole entry): as the sequence (P35462 whole entry F106A) above, with A106F counted along it
Chain of DRD3 wild-type (P35462 whole entry): as the sequence (P35462 whole entry F106A) above, with A106F counted along it
Chain of DRD2 (D2 long receptor) wild-type (P14416 whole entry): as the sequence (P14416 whole entry F110A) above, with A110F counted along it

CCOc1cccc2cc(C(C)NCC3(O)CCCCCC3)oc12 (stereo not shown) [O4LE7]
Ki [1]: 1580 nM
Ki (DRD3 wild-type): 240 nM
Ki [2]: 4070 nM
Ki (DRD3 F1063.28A [3]): 417 nM
affinity decreased, mutant vs wild type (DRD3 F1063.28A [3]; DRD3 Phe106^3.28Ala vs wild-type DRD3): 1.75 fold
EC50 (DRD2 (D2 long receptor) [4]; DRD2, agonist, Gαi/o-mediated cAMP inhibition, read-out: EC50 ± SEM): 1.65 ± 1.05 nM
response, Fig_S11d dose-response source data (DRD2 (D2 long receptor) [4]; Log[Drug] -6.52): 96.8634
response, Fig_S11d dose-response source data (DRD2 (D2 long receptor) [4]; Log[Drug] -7): 95.598 and 91.4295 and 85.3505 and 88.3932 and 84.5729 and 79.5858 and 85.933 and 88.7083 and 90.2631
response, Fig_S11d dose-response source data (DRD2 (D2 long receptor) [4]; Log[Drug] -7.52): 86.7896 and 85.152 and 83.291 and 74.147 and 71.7381 and 81.1478 and 90.9653 and 82.4555 and 87.421
response, Fig_S11d dose-response source data (DRD2 (D2 long receptor) [4]; Log[Drug] -8): 74.0608 and 77.7579 and 74.8548 and 59.6561 and 53.4646 and 60.8794 and 74.9823 and 74.9154 and 83.8097
response, Fig_S11d dose-response source data (DRD2 (D2 long receptor) [4]; Log[Drug] -8.52): 64.5825 and 59.1734 and 57.1139 and 43.5468 and 40.7239 and 43.8667 and 54.9367 and 67.0577 and 71.5884
response, Fig_S11d dose-response source data (DRD2 (D2 long receptor) [4]; Log[Drug] -9): 50.9108 and 57.9824 and 64.8058 and 28.6043 and 24.1441 and 25.7626 and 68.5958 and 61.4569 and 59.9355
response, Fig_S11d dose-response source data (DRD2 (D2 long receptor) [4]; Log[Drug] -9.52): 29.7954 and 31.0609 and 40.6137 and 14.7533 and 4.309 and 6.285 and 34.6235 and 38.6026 and 45.7749
response, Fig_S11d dose-response source data (DRD2 (D2 long receptor) [4]; Log[Drug] -10): 30.912 and 22.4013 and 39.5964 and 4.779 and -4.2354 and 0.1871 and 39.589 and 34.2056 and 43.2671
response, Fig_S11d dose-response source data (DRD2 (D2 long receptor) [4]; Log[Drug] -10.52): 36.5196 and 13.1215 and 30.515 and 10.8765 and -4.6118 and 7.301 and 39.8732 and 28.9894 and 33.9548
response, Fig_S11d dose-response source data (DRD2 (D2 long receptor) [4]; Log[Drug] -11): 25.0067 and 7.067 and 19.399 and -4.2354 and -19.0273 and 3.763 and 32.3665 and 18.8244 and 27.4345
response, Fig_S11d dose-response source data (DRD2 (D2 long receptor) [4]; Log[Drug] -11.52): 11.5335 and 13.2455 and 15.2305 and 7.489 and 4.214 and 9.484 and 32.4836 and 21.3489 and 42.8324
response, Fig_S11d dose-response source data (DRD2 (D2 long receptor) [4]; Log[Drug] -12): 5.306 and -4.8923 and -12.733 and -1.883 and -0.2081 and -16.5056 and -3.2274 and 22.4524 and -2.0571
Emax (DRD2 (D2 long receptor) [4]; HEK-293T, read-out: Emax relative to quinpirole response, DRD2, cAMP inhibition): 95.2%
EC50 (DRD4 (D4.4 variant) [5]): > 10000 nM
EC50 (DRD2 F1103.28L [6]; DRD2 F1103.28L (b138 head prints DRD2 F1063.28L)): 3.61 ± 0.07 nM
Emax (DRD2 F1103.28L [6]; read-out: Emax relative to quinpirole response, DRD2 F1103.28L): 72.6%
EC50 (DRD2 (D2 long receptor) [7]; DRD2, β-arrestin2 recruitment (Tango), read-out: EC50 ± SEM): 44.6 ± 4.71 nM
response, Fig_S11e dose-response source data (DRD2 (D2 long receptor) [7]; Log[Drug] -6.52): 70.7144
response, Fig_S11e dose-response source data (DRD2 (D2 long receptor) [7]; Log[Drug] -7): 60.0625 and 58.8888 and 58.966 and 44.6969 and 52.556 and 54.4002 and 47.2717 and 45.6897 and 52.8235
response, Fig_S11e dose-response source data (DRD2 (D2 long receptor) [7]; Log[Drug] -7.52): 37.663 and 37.8279 and 34.2682 and 29.2235 and 29.8377 and 33.7069 and 31.0328 and 28.5097 and 31.1567
response, Fig_S11e dose-response source data (DRD2 (D2 long receptor) [7]; Log[Drug] -8): 19.0993 and 25.2494 and 16.3411 and 14.3144 and 11.2312 and 12.8766 and 17.2566 and 18.2263 and 16.5156
response, Fig_S11e dose-response source data (DRD2 (D2 long receptor) [7]; Log[Drug] -8.52): 6.955 and 10.6803 and 8.41 and 5.811 and 4.949 and 5.989 and 8.148 and 9.142 and 8.777
response, Fig_S11e dose-response source data (DRD2 (D2 long receptor) [7]; Log[Drug] -9): 5.592 and 4.443 and 5.4634 and 4.207 and 4.266 and 4.232 and 6.141 and 5.2483 and 8.786
response, Fig_S11e dose-response source data (DRD2 (D2 long receptor) [7]; Log[Drug] -9.52): 4.527 and 4.325 and 4.4009 and 4.395 and 4.556 and 4.701 and 4.762 and 4.575 and 4.648
response, Fig_S11e dose-response source data (DRD2 (D2 long receptor) [7]; Log[Drug] -10): 3.636 and 4.222 and 3.934 and 4.061 and 4.088 and 4.136 and 4.898 and 3.74 and 4.41
response, Fig_S11e dose-response source data (DRD2 (D2 long receptor) [7]; Log[Drug] -10.52): 4.52 and 6.171 and 4.768 and 3.986 and 4.148 and 4.0514 and 3.608 and 3.803 and 4.57
response, Fig_S11e dose-response source data (DRD2 (D2 long receptor) [7]; Log[Drug] -11): 5.604 and 3.965 and 4.161 and 3.823 and 4.063 and 4.032 and 3.814 and 4.075 and 4.582
response, Fig_S11e dose-response source data (DRD2 (D2 long receptor) [7]; Log[Drug] -11.52): 3.3514 and 3.514 and 3.342 and 3.863 and 4.025 and 4.187 and 4.1 and 3.746 and 4.367
response, Fig_S11e dose-response source data (DRD2 (D2 long receptor) [7]; Log[Drug] -12): 4.706 and 3.881 and 4.189 and 3.844 (2×) and 3.873 and 3.954 and 3.594 and 3.602
Emax (DRD2 (D2 long receptor) [7]; HTLA, read-out: Emax relative to quinpirole response, DRD2, Tango): 71.8%
EC50 (DRD3; read-out: EC50 ± SEM): 803 ± 265 nM
Emax (DRD3; [14]): 32.3%
EC50 (DRD4 (D4.4 variant) [8]): > 10000 nM
EC50 (DRD2 F1103.28L [9]): 504 nM
Emax (DRD2 F1103.28L [9]; [14]): 25.8%
EC50 (DRD3 F1063.28A [10]): > 10000 nM
Ki (DRD2 F1103.28A [11]; DRD2 F1103.28A, read-out: pKi ± SEM (converted)): 214 nM
affinity increase (binding enhanced), mutant vs wild type (DRD2 F1103.28A [11]; DRD2 Phe110^3.28Ala vs wild-type DRD2): 7.52 fold
EC50 (DRD2 F1103.28A [12]): > 10000 nM
EC50 (DRD2 F1103.28A [13]): > 10000 nM
